Test results reported in article PMC8960621, “Solution speciation and human serum protein binding of indium(III) complexes of 8-hydroxyquinoline, deferiprone and maltol” (Journal of Biological Inorganic Chemistry, 2022).
Values joined by “and” are separate entries in the source; they are usually repeats but may differ in a detail not shown here. Equal entries are not always repeated.

Legend:
[1] = biological target: T1, human serum albumin (HSA) (Homo sapiens, UniProt P02768); experiment: HSA binding by steady-state spectrofluorometry (complex fluorescence and Trp-214 quenching)
T1 construct: purchased Sigma-Aldrich A8763
T1 sequence (P02768 25-609): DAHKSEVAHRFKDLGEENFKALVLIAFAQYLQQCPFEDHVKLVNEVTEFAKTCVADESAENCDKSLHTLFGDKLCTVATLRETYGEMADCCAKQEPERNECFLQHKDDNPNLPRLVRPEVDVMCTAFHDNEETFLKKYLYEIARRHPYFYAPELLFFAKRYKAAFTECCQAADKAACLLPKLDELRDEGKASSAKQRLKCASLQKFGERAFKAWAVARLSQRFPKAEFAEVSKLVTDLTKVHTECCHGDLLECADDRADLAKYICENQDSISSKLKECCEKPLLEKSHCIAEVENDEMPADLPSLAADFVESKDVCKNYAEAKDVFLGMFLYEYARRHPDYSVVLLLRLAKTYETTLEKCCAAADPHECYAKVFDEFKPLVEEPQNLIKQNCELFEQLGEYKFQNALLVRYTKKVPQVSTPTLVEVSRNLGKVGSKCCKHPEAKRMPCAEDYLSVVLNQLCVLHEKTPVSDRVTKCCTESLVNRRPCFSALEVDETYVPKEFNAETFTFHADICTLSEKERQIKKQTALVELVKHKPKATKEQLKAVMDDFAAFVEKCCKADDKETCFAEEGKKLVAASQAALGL
Source text: The effect of HSA on the intrinsic fluorescence of InQ3 and InD3 was studied. Similarly to GaQ3 and tris(8-hydroxy-quinolinato)Al(III), InQ3 and InD3 are also fluorescent metal complexes (see Table 2 for λmax values). […] The fluorescence intensity of InQ3 increased in the presence of HSA, and emission intensity values measured at 530 nm show a saturation character plotted against the added HSA equivalents. […] At the same time, UV–vis absorbance spectra of InQ3 are only slightly altered by the binding interaction. Enhanced fluorescence of InQ3, and fast binding kinetics confirm the binding of the non-dissociated metal complex to the protein via intermolecular interactions. Fluorometric data can be excellently fitted with the computer program PSEQUAD [43] assuming a single site model (see Fig. 3), and a conditional binding constant of log K′ = 5.0 ± 0.1 was calculated for the HSA – InQ3 adduct. This constant indicates a moderate affinity of the complex on HSA.
Binding at the site I hydrophobic pocket of HSA can be followed via the selective excitation (λEX = 295 nm) of the single Trp (Trp-214) located close to this site. Trp-214 is sensitive to the binding events taking place at or near this site. The InQ3 complex quenched effectively the fluorescence of HSA, and a quenching constant (K’Q) could be computed based on the measured spectra: log K’Q = 5.1 ± 0.1.
Fluorescence studies were implemented by a Fluoromax (Horiba Jobin Yvon) fluorometer in 1 cm quartz cells. Samples contained 1 μM HSA or (apo)Tf and various protein-to-metal complex (or InCl3) ratios (up to complex/HSA = 1:30) were used. The excitation wavelength was 295 nm and 280 nm for HSA and Tf binding studies, respectively; emission intensity was registered between 300 and 450 nm. Intrinsic fluorescence of complex InQ3 was also followed at λEX = 367 nm, and λEM = 450 – 650 nm. In this setup, the complex concentration was ca. 10 or 20 μM, and protein (HSA, (apo)Tf) concentration was varied between 0 and 130 μM, and residual fluorescence of the proteins were subtracted if it was necessary. […] Computer program PSEQUAD [43] was utilized for the calculation of binding constants (K’) for HSA – InQ3 adducts similar to the approach described in our former works. Calculations were always based on data obtained from at least two independent measurements.

[2] = biological target: T2, apo-transferrin (apoTf) (Homo sapiens, UniProt P02787); experiment: Kinetics of the reaction with apoTf followed by UV-vis spectrophotometry; format: binding; details: pH 7.40 (InCl3: 2 equiv.)
T2 construct: purchased Sigma-Aldrich T2036
T2 sequence (P02787 20-698): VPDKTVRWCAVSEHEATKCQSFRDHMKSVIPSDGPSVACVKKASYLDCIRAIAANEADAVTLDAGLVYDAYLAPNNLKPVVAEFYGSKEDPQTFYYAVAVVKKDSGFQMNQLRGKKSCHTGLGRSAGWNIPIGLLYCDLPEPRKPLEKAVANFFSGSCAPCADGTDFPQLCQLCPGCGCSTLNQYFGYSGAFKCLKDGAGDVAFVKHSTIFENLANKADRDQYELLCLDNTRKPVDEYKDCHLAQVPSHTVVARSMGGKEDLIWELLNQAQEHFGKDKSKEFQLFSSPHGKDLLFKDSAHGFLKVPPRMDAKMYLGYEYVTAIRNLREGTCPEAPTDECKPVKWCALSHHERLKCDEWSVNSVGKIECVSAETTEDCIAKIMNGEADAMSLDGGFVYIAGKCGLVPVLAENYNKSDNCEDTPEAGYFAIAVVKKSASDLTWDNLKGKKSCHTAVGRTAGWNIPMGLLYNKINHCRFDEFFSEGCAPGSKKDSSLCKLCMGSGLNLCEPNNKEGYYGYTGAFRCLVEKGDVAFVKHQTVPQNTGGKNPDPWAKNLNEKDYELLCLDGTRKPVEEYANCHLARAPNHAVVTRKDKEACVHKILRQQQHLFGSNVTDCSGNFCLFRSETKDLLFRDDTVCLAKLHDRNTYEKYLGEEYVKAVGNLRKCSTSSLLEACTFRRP
Description: Firstly, the kinetics of the reaction between apoTf and InCl3 and the complexes was studied by UV–vis spectrophotometry. The reaction of 2 equiv. […] At the same time Harris et al. have observed slow equilibration with InCl3, that was accelerated (to 6 h) in the presence of NTA [18]. In the case of InQ3 and InD3, the progress of apoTf binding could be followed through the ligand bands of the complexes. […] The Ga(III)-analogue GaQ3 interacted within 1 h with apoTf under similar conditions.
For (apo)Tf containing samples, complex concentrations were 20 μM and 0–2.5 equiv. protein was added. Reference spectra for the complexes, ligands and protein were recorded as well. Samples prepared with blood serum contained three-fold diluted serum and 10 μM metal complexes. UV–vis spectra presented in this paper for complexes InD3 or InQ3 are subtracted by the spectrum of reference protein (HSA (apo)Tf or serum) sample in all cases in favour of the better interpretation of the results.

[3] = system: HSA and Tf; experiment: Complex - HSA - Tf ternary systems (three-dimensional fluorescence and UV-vis); format: binding, human; details: pH 7.40; for metal ion Tf bound: 10 μM complex, HSA 5.2 equiv., Tf 0.32 equiv.; for dissociation of the complex: 212 μM HSA and 12.8 μM Tf (ratio 1:21.2:1.28)
Description: The reliability of UV–vis and fluorescence spectroscopic techniques in the characterization of the mode of interaction of In(III) complexes with HSA and (apo)Tf was proven in the former sections. Therefore, as a continuation three-dimensional fluorescence and UV–vis spectra were recorded for InQ3 and GaQ3 in the presence of both HSA and Tf (Figs. 7 and S7).
In these experiments, the applied HSA-to-Tf ratio corresponds to their physiological ratio in blood serum (630:38). Figure 8 depicts the intensity changes of the ternary system (complex and both proteins) for InQ3 at λEX = 367 nm and λEM = 530 nm in comparison to the respective binary systems (complex and only one type of protein). Apparently, albumin binding of the complex is indeed achieved in the ternary system, although to a lower extent compared to the InQ3 – HSA binary system, and the Tf binding of In(III) becomes more significant at higher protein concentrations. Consequently, the measured intensity reduces parallel with the decreasing (free and albumin bound) InQ3 concentration. […] Based on these spectra, InQ3 and GaQ3 are at least partly HSA-bound. However, minor dissociation of the complexes is evidenced by the UV–vis spectra (Fig. S7) even at this ratio that is more advanced for InQ3 than for GaQ3 (ca. 30% and 10% metal ion is Tf bound, respectively). The differences between the two complexes become more pronounced by getting closer to the physiologically relevant protein concentrations. In the presence of 212 μM HSA and 12.8 μM Tf (ratio: 1:21.2:1.28), the fluorescence of InQ3 is diminished, as most of the complex decomposes and In(III) is bound to Tf. […] To mimic the blood protein concentrations, three-times higher values would be needed; however, under that conditions fluorometric detection becomes inadequate due to the too high absorbance and light scattering of the samples.
Three-dimensional spectra were recorded for ternary systems containing InQ3 or GaQ3, HSA and Tf in the wavelength range λEX = 250 – 450 nm and λEM = 300 – 700 nm. All three-dimensional spectra were corrected by residual fluorescence of the proteins, inner filter effect and self-absorbance.

SMILES	binding on HSA (fluorescence intensities additive) ([1]; fluorometry, pH 7.40)	time to reach equilibrium in the reaction with apoTf [2] [h]	metal ion Tf bound [3]	dissociation of the complex [3]	log K’Q (quenching constant) ([1]; Trp-214 quenching, λEX = 295 nm, pH 7.40)	time of the interaction with HSA ([1]; fluorometry)	log K′ (conditional binding constant, HSA adduct) ([1]; fluorometry of the complex, single site model, pH 7.40, 25 °C)
Cc1c([O-])c(=O)ccn1C.Cc1c([O-])c(=O)ccn1C.Cc1c([O-])c(=O)ccn1C.[In+3] [InD3]	no considerable binding	~0.5	–	–	–	–	–
[Ga+3].[O-]c1cccc2cccnc12.[O-]c1cccc2cccnc12.[O-]c1cccc2cccnc12 [GaQ3, Tris(8-Quinolinolato)gallium(III), reference compound]	–	–	~10%	25%	–	–	–
[In+3].[O-]c1cccc2cccnc12.[O-]c1cccc2cccnc12.[O-]c1cccc2cccnc12 [InQ3, Tris(8-Quinolinolato)indium(III)]	–	3 to 4	ca. 30%	practically completely dissociated	5.1 ± 0.1	within a few seconds	5.0–5.1 and 5.0 ± 0.1
